In patent publication US20170121344A1 (Siga Technologies, Inc., priority 2009, published 2017):
Read-outs that look alike come from different tables or passages of the source.

Test system: Dengue-2 (Strain New Guinea C)
Experiment: Viral yield assay against Dengue-2 in Vero cells
Assay type: cell-based, Dengue virus
Details: Dengue virus
Method in brief: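 Vero cells were infected with dengue virus at an MOI of 0.1, treated with compound or DMSO vehicle, and kept at 37° C. Supernatant virus was harvested 48 hours post infection and titered on Vero cells, with EC50 derived from yield reduction.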

[1] = DENV2, viral yield assay, Vero cells, MOI 0.1, 48 hours post infection, read-out: Activity (EC50 in μM) DENV-2
[2] = Vero cells, MOI 0.1, harvested 48 hours post infection, read-out: Activity (EC50 class) against Dengue-2 Virus in Vero cells
[3] = Vero, 48 h, read-out: Activity (EC50 class) against Dengue-2 Virus in Vero cells

SMILES | EC50 [1] [µM] | EC50 [2] [µM] | other results
Cc1cc(C)c2c(C)c(C(=O)Nc3ccccc3O)sc2n1 [Compound 403, N-(2-hydroxyphenyl)-3,4,6-trimethyl-thieno[2,3-b]pyridine-2-carboxamide] | < 5 | – | –
CC(=O)N1CCc2nc3sc(C(=O)Nc4ccc(C(C)(C)C)cc4)c(N)c3c(C(F)(F)F)c2C1 [Compound 56, 6-Acetyl-3-amino-4-trifluoromethyl-5,6,7,8-tetrahydro-thieno[2,3-b][1,6]naphthyridine-2-carboxylic acid (4-tert-butyl-phenyl)-amide] | – | < 5 | –
COc1ccc(CNC(=O)c2sc3nc4c(cc3c2N)CN(C)CC4)cc1 [Compound 266, 3-Amino-6-methyl-5,6,7,8-tetrahydro-thieno[2,3-b][1,6]naphthyridine-2-carboxylic acid 4-methoxy-benzylamide] | – | > 25 | –
C=CCn1cnc2c(sc3nc4c(cc32)COC(C)(C)C4)c1=O [Compound 202, 2-Allyl-8,8-dimethyl-8,9-dihydro-2H,6H-7-oxa-11-thia-2,4,10-triaza-benzo[b]fluoren-1-one] | – | > 25 | –
COc1ccc(-c2cc(C3CC3)nc3sc(C(N)=O)c(N)c23)cc1 [Compound 7, 3-Amino-6-cyclopropyl-4-(4-methoxy-phenyl)-thieno[2,3-b]pyridine-2-carboxylic acid amide] | – | < 5 | –
C=C(C)Cn1cnc2c(sc3nc4c(cc32)COC(C)(C)C4)c1=O [Compound 203, 8,8-Dimethyl-2-(2-methyl-allyl)-8,9-dihydro-2H,6H-7-oxa-11-thia-2,4,10-triaza-benzo[b]fluoren-1-one] | – | > 25 | –
Nc1c(C(=O)Nc2ccc(Br)cc2)sc2nc(-c3ccc(Cl)cc3Cl)ccc12 [Compound 654, 3-amino-N-(4-bromophenyl)-6-(2,4-dichlorophenyl)thieno[2,3-b]pyridine-2-carboxamide] | < 5 | – | –
Cc1cc(C)c2c(N)c(C(=O)Nc3ccc(F)c(Cl)c3)sc2n1 [Compound 200, 3-Amino-4,6-dimethyl-thieno[2,3-b]pyridine-2-carboxylic acid (3-chloro-4-fluoro-phenyl)-amide] | – | – | EC50 [3]: > 25 µM
Cc1nc2c(sc3nc4c(cc32)COC(C)(C)C4)c(=O)n1CCc1ccccc1 [Compound 230, 3,8,8-Trimethyl-2-phenethyl-8,9-dihydro-2H,6H-7-oxa-11-thia-2,4,10-triaza-benzo[b]fluoren-1-one] | – | – | EC50 [3]: > 25 µM
Nc1c(C(=O)Nc2cc(Cl)ccc2Cl)sc2nc(-c3ccc(Cl)cc3)ccc12 [Compound 347, 3-amino-6-(4-chlorophenyl)-N-(2,5-dichloro-phenyl)thieno [2,3-b]pyridine-2-carboxamide] | < 5 | – | –
COc1ccc(-c2ccc3c(N)c(C(=O)Nc4ccc(Br)cc4)sc3n2)cc1OC [Compound 451, 3-amino-N-(4-bromophenyl)-6-(3,4-dimethoxyphenyl)thieno[2,3-b]pyridine-2-carboxamide] | < 5 | – | –
Nc1c(C(=O)Nc2ccc3ccccc3c2)sc2nc3c(cc12)CCCC3 [Compound 87, 3-Amino-5,6,7,8-tetrahydro-thieno[2,3-b]quinoline-2-carboxylic acid naphthalen-2-ylamide] | – | 5 to 25 | –
Nc1c(C(=O)Nc2ccc(F)c(Cl)c2)sc2nc(-c3ccc4c(c3)OCO4)ccc12 [Compound 595, 3-amino-6-(1,3-benzodioxol-5-yl)-N-(3-chloro-4-fluoro-phenyl)thieno[2,3-b] pyridine-2-carboxamide] | < 5 | – | –
Cc1csc(NC(=O)c2sc3nc(-c4cccs4)ccc3c2N)n1 [Compound 55, 3-Amino-6-thiophen-2-yl-thieno[2,3-b]pyridine-2-carboxylic acid (4-methyl-thiazol-2-yl)amide] | – | – | EC50 [3]: < 5 µM
Cc1ccc(-c2ccc3c(N)c(C(=O)Nc4ccccc4C)sc3n2)cc1 [Compound 637, 3-amino-N-(o-tolyl)-6-(p-tolyl)thieno [2,3-b]pyridine-2-carboxamide] | < 5 | – | –
COc1cc2c(cc1OC)CN(C(=O)c1sc3nc4c(cc3c1N)CN(C)CC4)CC2 [Compound 274, (3-Amino-6-methyl-5,6,7,8-tetrahydro-thieno[2,3-b][1,6]naphthyridin-2-yl)-(6,7-dimethoxy-3,4-dihydro-1H-isoquinolin-2-yl)-methanone] | – | > 25 | –
CCCCOc1ccc(NC(=O)c2sc3nc(N)c(C#N)cc3c2N)cc1 [Compound 70, 3,6-Diamino-5-cyano-thieno[2,3-b]pyridine-2-carboxylic acid (4-butoxy-phenyl)-amide] | – | – | EC50 [3]: 5 to 25 µM
NC(=O)c1sc2nc(C3CC3)cc(-c3ccccc3)c2c1N [Compound 8, 3-Amino-6-cyclopropyl-4-phenyl-thieno[2,3-b]pyridine-2-carboxylic acid amide] | – | < 5 | –
COCc1cc(C)nc2sc(C(=O)Nc3ccccc3C)c(N)c12 [Compound 210, 3-Amino-4-methoxymethyl-6-methyl-thieno[2,3-b]pyridine-2-carboxylic acid o-tolylamide] | – | – | EC50 [3]: > 25 µM

SMILES | EC50 [1] [µM] | EC50 [2] [µM] | other results
CCOC(=O)c1c(NC(=O)c2sc3nc(N)c(C#N)cc3c2N)sc2c1CCCC2 [Compound 148, 2-[(3,6-Diamino-5-cyano-thieno[2,3-b]pyridine-2-carbonyl)-amino]-4,5,6,7-tetrahydro-benzo[b]thiophene-3-carboxylic acid ethyl ester] | – | > 25 | –
COc1cccc(NC(=O)c2sc3nc(-c4cccc(OC)c4)ccc3c2N)c1 [Compound 503, 3-amino-N,6-bis(3-methoxyphenyl) thieno[2,3-b]pyridine-2-carboxamide] | < 5 | – | –
Cc1ccccc1-n1cnc2c(sc3nc(N4CCOCC4)c4c(c32)CC(C)(C)OC4)c1=O [Compound 100, 2,2-Dimethyl-5-morpholin-4-yl-9-o-tolyl-1,4-dihydro-2H,9H-3-oxa-7-thia-6,9,11-triaza-benzo[c]fluoren-8-one] | – | 5 to 25 | –
CN1CCc2nc3sc(C(=O)Nc4cccc(Cl)c4)c(N)c3cc2C1 [Compound 18, 3-Amino-6-methyl-5,6,7,8-tetrahydro-thieno[2,3-b][1,6]naphthyridine-2-carboxylic acid (3-chloro-phenyl)-amide] | – | < 5 | –
COc1cccc(-c2ccc3c(N)c(C(=O)Nc4ccc(Cl)cc4F)sc3n2)c1 [Compound 519, 3-amino-N-(4-chloro-2-fluoro-phenyl)-6-(3-methoxyphenyl)thieno[2,3-b]pyridine-2-carboxamide] | < 5 | – | –
Nc1c(C(=O)NC2CCCCC2)sc2nc3c(cc12)CCCCC3 [Compound 281, 3-amino-N-cyclohexyl-6,7,8,9-tetrahydro-5H-cyclohepta[b]thieno [3,2-e]pyridine-2-carboxamide] | 5 to 25 | – | –
NC(=O)c1sc2nc(-c3cccs3)cc(-c3ccc(F)cc3)c2c1N [Compound 2, 3-Amino-4-(4-fluoro-phenyl)-6-thiophen-2-yl-thieno[2,3-b]pyridine-2-carboxylic acid amide] | – | < 5 | –
Cc1ccc(-c2ccc3c(N)c(C(=O)Nc4ccccc4F)sc3n2)cc1 [Compound 649, 3-amino-N-(2-fluorophenyl)-6-(p-tolyl) thieno[2,3-b]pyridine-2-carboxamide] | < 5 | – | –
Cc1nc(C)c(-c2ccc3c(N)c(C(=O)Nc4cccc(C(F)(F)F)c4)sc3n2)s1 [Compound 318, 3-amino-6-(2,4-dimethylthiazol-5-yl)-N-[3-(trifluoromethyl)phenyl]thieno[2,3-b]pyridine-2-carboxamide] | < 5 | – | –
CC1(C)CC(=O)c2cc3c(N)c(C(=O)Nc4ccc5c(c4)OCO5)sc3nc2C1 [Compound 226, 3-Amino-7,7-dimethyl-5-oxo-5,6,7,8-tetrahydro-thieno[2,3-b]quinoline-2-carboxylic acid benzo[1,3]dioxol-5-ylamide] | – | > 25 | –
CC(C)NC(=O)c1sc2nc3c(cc2c1N)CN(C)CC3 [Compound 270, 3-Amino-6-methyl-5,6,7,8-tetrahydro-thieno[2,3-b][1,6]naphthyridine-2-carboxylic acid isopropylamide] | – | > 25 | –
Cc1cc(C(F)(F)F)c2c(N)c(C(=O)Nc3ccc(I)cc3C)sc2n1 [Compound 123, 3-Amino-6-methyl-4-trifluoromethyl-thieno[2,3-b]pyridine-2-carboxylic acid (4-iodo-2-methyl-phenyl)-amide] | – | > 25 | –
COCc1cc(C)nc2sc(C(=O)Nc3ccc(C(=O)OC)cc3)c(N)c12 [Compound 239, 4-[(3-Amino-4-methoxymethyl-6-methyl-thieno[2,3-b]pyridine-2-carbonyl)-amino]-benzoic acid methyl ester] | – | – | EC50 [3]: > 25 µM
CCCCNC(=O)c1sc2nc3c(cc2c1N)CCCCC3 [Compound 282, 3-amino-N-butyl-6,7,8,9-tetrahydro-5H-cyclohepta [b]thieno[3,2-e]pyridine-2-carboxamide] | 5 to 25 | – | –
O=C(Nc1cccc(Cl)c1)c1sc2ncccc2c1OCc1ccc(Cl)c(Cl)c1 [Compound 380, N-(3-chlorophenyl)-3-[(3,4-dichlorophenyl)methoxy]thieno[2,3-b] pyridine-2-carboxamide] | < 5 | – | –
COc1ccc(-c2c(C#N)c(N)nc3sc(C(N)=O)c(N)c23)cc1OC [Compound 170, 3,6-Diamino-5-cyano-4-(3,4-dimethoxy-phenyl)-thieno[2,3-b]pyridine-2-carboxylic acid amide] | – | – | EC50 [3]: > 25 µM
CN1CCc2nc3sc(C(=O)Nc4ccccc4)c(N)c3c(-c3ccccc3)c2C1 [Compound 49, 3-Amino-6-methyl-4-phenyl-5,6,7,8-tetrahydro-thieno[2,3-b][1,6]naphthyridine-2-carboxylic acid phenylamide] | – | < 5 | –
Cn1cnc2c(sc3nc4c(cc32)COC(C)(C)C4)c1=O [Compound 201, 2,8,8-Trimethyl-8,9-dihydro-2H,6H-7-oxa-11-thia-2,4,10-triaza-benzo[b]fluoren-1-one] | – | – | EC50 [3]: > 25 µM
